Results reported in ChEMBL document CHEMBL1201862, “PubChem BioAssay data set” (2004).
Active and inactive are the calls of the source. For most assays here, no stated cut-off is given here; in the data, actives have a measured IC50 and inactives only a lower limit.

Experiments:
[1] = inhibitors of intracellular T. cruzi replication, confirmation, NIH3T3 host cells, beta-gal luminescence (AID 2044); format: functional, cell-based;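 further: intracellular parasites grown in NIH/3T3 mouse fibroblasts as host cells; luminescent beta-galactosidase reporter signal from transgenic T. cruzi replicating inside host cells; inhibitors lower the luminescence signal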
[2] = cytotoxicity toward NIH3T3 fibroblasts, dose response, counter-screen, cell-based, ATP luminescence, mouse fibroblasts (AID 2010); format: functional;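 further: cells exposed to compound for about 90 hours before reading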
[3] = biological target: T1, Microphthalmia-associated transcription factor (Homo sapiens, UniProt O75030); test: TRPM1 promoter luciferase signal decrease, dose response, MITF inhibitor project, cell-based, SK-MEL-5, cherry-picked, set 3 (AID 493073); format: functional
T1 sequence (O75030 whole entry): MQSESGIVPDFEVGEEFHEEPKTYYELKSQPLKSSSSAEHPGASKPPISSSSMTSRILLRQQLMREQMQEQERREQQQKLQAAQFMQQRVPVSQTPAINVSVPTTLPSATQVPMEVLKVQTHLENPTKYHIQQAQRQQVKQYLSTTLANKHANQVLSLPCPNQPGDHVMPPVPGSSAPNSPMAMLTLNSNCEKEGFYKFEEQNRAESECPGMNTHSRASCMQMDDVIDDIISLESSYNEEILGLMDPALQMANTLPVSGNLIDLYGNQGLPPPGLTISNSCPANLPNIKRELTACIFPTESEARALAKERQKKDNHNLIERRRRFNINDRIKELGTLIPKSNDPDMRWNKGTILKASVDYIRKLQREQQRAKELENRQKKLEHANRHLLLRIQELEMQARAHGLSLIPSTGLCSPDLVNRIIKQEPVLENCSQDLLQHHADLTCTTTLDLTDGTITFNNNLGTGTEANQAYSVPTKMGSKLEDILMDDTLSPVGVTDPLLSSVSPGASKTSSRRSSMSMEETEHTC

[4] = biological target: V-type proton ATPase subunit c' (Saccharomyces cerevisiae S288c, UniProt P32842); test: Dose Response with BCECF Assay for V-ATPase inhibitors that increase vacuolar pH, Powder Set 1.; format: functional; details: read-out: EC50_MICROM
[5] = biological target: T2, Sentrin-specific protease 8 (Homo sapiens, UniProt Q96LD8); test: SENP8 protease inhibitors, SAR follow-up, biochemical, luminescence (AID 504501); format: functional
T2 sequence (Q96LD8 whole entry): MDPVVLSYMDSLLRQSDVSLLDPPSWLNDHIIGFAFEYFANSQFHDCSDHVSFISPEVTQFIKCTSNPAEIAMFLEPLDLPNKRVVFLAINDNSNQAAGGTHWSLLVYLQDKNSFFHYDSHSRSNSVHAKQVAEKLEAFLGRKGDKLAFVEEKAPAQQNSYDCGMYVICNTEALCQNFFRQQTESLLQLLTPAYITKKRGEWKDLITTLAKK

Caspase-3 [6] = biological target: T3, Caspase-3 (Homo sapiens, UniProt P42574); test: SAR Analysis of small molecule inhibitors of Sentrin-specific proteases (SENPs) using a Caspase-3 Selectivity assay. [Related pubchem assays (depositor defined):AID2540, AID2599, AID434973, AID489001]; format: functional
T3 sequence (P42574 whole entry): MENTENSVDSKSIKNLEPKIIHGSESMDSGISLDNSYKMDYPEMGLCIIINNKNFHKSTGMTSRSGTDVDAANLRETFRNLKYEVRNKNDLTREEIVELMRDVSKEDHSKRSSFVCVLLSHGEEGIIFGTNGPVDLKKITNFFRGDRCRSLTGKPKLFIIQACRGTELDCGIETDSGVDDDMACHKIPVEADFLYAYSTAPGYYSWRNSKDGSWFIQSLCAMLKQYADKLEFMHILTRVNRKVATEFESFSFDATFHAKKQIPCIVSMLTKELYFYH

[7] = biological target: T4, Sentrin-specific protease 6 (Homo sapiens, UniProt Q9GZR1); test: SAR Analysis of small molecule inhibitors of Sentrin-specific protease 6 (SENP6) using a Luminescent assay. [Related pubchem assays (depositor defined):AID2582, AID2599]; format: functional
T4 sequence (Q9GZR1 whole entry): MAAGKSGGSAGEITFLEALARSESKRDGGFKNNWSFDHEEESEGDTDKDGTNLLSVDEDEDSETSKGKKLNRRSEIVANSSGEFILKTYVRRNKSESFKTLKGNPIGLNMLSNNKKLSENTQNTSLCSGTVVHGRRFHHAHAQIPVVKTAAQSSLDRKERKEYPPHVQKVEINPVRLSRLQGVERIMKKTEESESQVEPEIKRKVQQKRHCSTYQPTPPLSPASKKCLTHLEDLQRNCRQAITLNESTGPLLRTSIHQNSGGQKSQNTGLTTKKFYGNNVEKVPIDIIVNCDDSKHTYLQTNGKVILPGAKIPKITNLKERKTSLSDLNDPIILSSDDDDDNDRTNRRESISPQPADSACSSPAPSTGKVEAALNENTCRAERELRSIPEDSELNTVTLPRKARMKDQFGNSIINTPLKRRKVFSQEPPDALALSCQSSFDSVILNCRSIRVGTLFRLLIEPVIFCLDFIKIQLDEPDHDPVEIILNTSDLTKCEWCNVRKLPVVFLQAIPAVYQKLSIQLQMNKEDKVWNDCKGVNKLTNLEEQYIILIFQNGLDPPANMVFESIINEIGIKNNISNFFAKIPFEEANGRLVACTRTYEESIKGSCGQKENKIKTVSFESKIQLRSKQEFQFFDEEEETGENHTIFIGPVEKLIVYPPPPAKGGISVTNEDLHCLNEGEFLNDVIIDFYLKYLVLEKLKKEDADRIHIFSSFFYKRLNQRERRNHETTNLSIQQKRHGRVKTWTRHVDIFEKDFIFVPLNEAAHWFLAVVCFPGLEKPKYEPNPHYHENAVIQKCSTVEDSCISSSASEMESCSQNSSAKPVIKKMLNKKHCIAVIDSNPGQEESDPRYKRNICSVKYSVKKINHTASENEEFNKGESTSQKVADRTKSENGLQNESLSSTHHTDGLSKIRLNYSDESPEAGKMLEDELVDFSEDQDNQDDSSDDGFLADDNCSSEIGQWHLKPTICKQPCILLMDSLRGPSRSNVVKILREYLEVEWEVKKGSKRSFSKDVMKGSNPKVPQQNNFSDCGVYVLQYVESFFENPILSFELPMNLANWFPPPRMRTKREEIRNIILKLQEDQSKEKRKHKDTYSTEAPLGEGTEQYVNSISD

[8] = biological target: T5, Sentrin-specific protease 7 (Homo sapiens, UniProt Q9BQF6); test: SENP7 protease inhibitors, SAR follow-up, biochemical, luminescence (AID 504497); format: functional
T5 sequence (Q9BQF6 whole entry): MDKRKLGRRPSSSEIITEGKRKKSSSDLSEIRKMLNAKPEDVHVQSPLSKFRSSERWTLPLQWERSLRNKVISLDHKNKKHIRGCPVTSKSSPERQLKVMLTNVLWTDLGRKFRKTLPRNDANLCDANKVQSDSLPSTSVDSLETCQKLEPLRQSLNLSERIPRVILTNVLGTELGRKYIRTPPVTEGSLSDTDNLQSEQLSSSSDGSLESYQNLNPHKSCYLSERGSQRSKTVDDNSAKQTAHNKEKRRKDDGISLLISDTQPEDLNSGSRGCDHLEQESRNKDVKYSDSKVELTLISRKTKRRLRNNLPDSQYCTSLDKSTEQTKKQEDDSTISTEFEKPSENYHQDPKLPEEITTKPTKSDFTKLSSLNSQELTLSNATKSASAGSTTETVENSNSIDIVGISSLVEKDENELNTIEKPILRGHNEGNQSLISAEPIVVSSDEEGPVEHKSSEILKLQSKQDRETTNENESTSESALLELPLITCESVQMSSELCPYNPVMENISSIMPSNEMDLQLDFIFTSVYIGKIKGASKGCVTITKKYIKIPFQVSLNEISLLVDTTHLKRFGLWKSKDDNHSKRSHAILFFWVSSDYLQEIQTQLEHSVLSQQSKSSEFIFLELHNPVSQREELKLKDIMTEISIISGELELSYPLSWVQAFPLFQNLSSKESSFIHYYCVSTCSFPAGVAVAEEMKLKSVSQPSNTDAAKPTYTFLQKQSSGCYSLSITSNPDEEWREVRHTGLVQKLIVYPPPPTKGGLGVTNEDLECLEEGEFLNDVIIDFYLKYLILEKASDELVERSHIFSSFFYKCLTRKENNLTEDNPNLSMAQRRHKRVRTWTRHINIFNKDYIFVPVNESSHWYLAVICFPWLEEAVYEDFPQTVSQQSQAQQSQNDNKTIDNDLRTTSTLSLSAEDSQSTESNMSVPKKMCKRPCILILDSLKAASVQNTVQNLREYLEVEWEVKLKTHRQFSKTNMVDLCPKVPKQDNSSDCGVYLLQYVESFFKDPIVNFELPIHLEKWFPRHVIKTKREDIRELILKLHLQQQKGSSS

Caspase-3 [9] = biological target: T3, Caspase-3; test: caspase-3 inhibitors as off-family protease, SAR follow-up, selectivity assay for SENP protease inhibitor project, biochemical, luminescence, set 2 (AID 588599); format: functional
[10] = biological target: T2, Sentrin-specific protease 8; test: SENP8 protease inhibitors, SAR follow-up, biochemical, luminescence, set 2 (AID 588601); format: functional
[11] = biological target: T5, Sentrin-specific protease 7; test: SENP7 protease inhibitors, SAR follow-up, biochemical, luminescence, set 2 (AID 588600); format: functional
[12] = biological target: T4, Sentrin-specific protease 6; test: SENP6 protease inhibitors, SAR follow-up, biochemical, luminescence, set 2 (AID 588598); format: functional

Sequence of V-type proton ATPase subunit c' (P32842 whole entry): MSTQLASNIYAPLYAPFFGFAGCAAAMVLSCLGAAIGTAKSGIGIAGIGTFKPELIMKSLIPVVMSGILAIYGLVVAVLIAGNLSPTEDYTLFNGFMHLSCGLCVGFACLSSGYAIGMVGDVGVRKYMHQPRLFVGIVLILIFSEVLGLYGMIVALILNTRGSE

COc1ccc2nc(N3CCN(C(=O)c4ccc([N+](=O)[O-])o4)CC3)sc2c1
EC50 [1]: 0.434 µM (active)
EC50 [2]: 39.5 µM (active)
AC50 [3]: 5.81 µM (active)
EC50 [4]: 0.728 µM (active)

CC(N/C=C1/C(=O)N(c2nc3ccccc3s2)N=C1C(F)(F)F)C12CC3CC(CC(C3)C1)C2 (configuration not stated)
IC50 [5]: 86.9 µM (active)
IC50 (Caspase-3 [6]): 40.7 µM (active)
IC50 [7]: 77.3 µM (active)
IC50 [8]: 87.3 µM (active)

O=C(Cc1ccc(C(F)(F)F)cc1[N+](=O)[O-])N/N=C/c1c[nH]c2ccccc12
IC50 (Caspase-3 [9]): > 99 µM (inactive)
IC50 [10]: > 99 µM (inactive)
IC50 [11]: > 99 µM (inactive)
IC50 [12]: > 99 µM (inactive)
